Experimental data published in patent EP0551953A2, “17-(Pyridazine-N-oxide)-substituted steroidal compounds active on the cardiovascular system” (ZAMBON GROUP S.p.A., priority 1992, dated 1993).

tested on: alpha₃ isoform of rat (Na⁺+K⁺)-ATPase; experiment: Displacement of [3H]-ouabain, alpha3 isoform, rat brain preparation; assay type: binding; details: not given
From the text: The activity of the compounds of formula II has been evaluated with the binding test on the alpha₁ and alpha₃ isoforms of rat (Na⁺+K⁺)-ATPase in rat kidney and rat brain, according to the method described by Noel F. et al., Biochemical Pharmacology, 40(12), pp 2611-2616, (1990) (see Example 2).
Evaluation of the interaction with the alpha₁ and alpha₃ isoforms of rat (Na⁺+K⁺)-ATPase
The method of Noel F. et al., Biochemical Pharmacology, 40(12), pp. 2611-2616, (1990) was used to evaluate the displacement of [³H]-ouabain in preparations of rat kidney and rat brain, containing various concentrations of nerifolin, 3beta-(alpha-L-tevetopyranosyloxy)-14-hydroxy-17beta-(4-pyridazil)-5beta,14beta-androstane (compound R), compound 5 and compound 6 and the corresponding genins, respectively, digitoxygenin, 3beta,14-dihydroxy-17beta-(4-pyridazil)-5beta,14beta-androstane (genin 1), 3beta,14-dihydroxy-17beta-(4-pyridazinyl-2-N-oxide)-5beta,14beta-androstane (genin 2) and 3beta,14-dihydroxy-17beta-(4-pyridazinyl-1-N-oxide)-5beta,14beta-androstane (genin 3).

SMILES | K₁(alpha₁)/K₁(alpha₃)
C[C@]12CC[C@H](O)C[C@H]1CC[C@@H]1[C@@H]2CC[C@]2(C)[C@@H](C3=CC(=O)OC3)CC[C@]12O [Digitoxygenin, digitoxygenin] | 37

same assay, conditions: selectivity index, alpha₁ (rat kidney) versus alpha₃ (rat brain)

SMILES | K₁(alpha₁)/K₁(alpha₃)
CO[C@H]1[C@H](O)[C@H](O[C@H]2CC[C@@]3(C)[C@H](CC[C@@H]4[C@@H]3CC[C@]3(C)[C@@H](c5ccn[n+]([O-])c5)CC[C@]43O)C2)O[C@@H](C)[C@@H]1O [Compound 5, 3beta-(alfa-L-tevetopyranosyloxy)-14-hydroxy-17beta-(4-pyridazinyl-2-N-oxide)-5beta,14beta-androstane] | ≧1258
CO[C@H]1[C@H](O)[C@H](O[C@H]2CC[C@@]3(C)[C@H](CC[C@@H]4[C@@H]3CC[C@]3(C)[C@@H](c5cc[n+]([O-])nc5)CC[C@]43O)C2)O[C@@H](C)[C@@H]1O [Compound 6, 3beta-(alfa-L-tevetopyranosyloxy)-14-hydroxy-17beta-(4-pyridazinyl-1-N-oxide)-5beta,14beta-androstane] | ≧1000
CO[C@H]1[C@H](O)[C@H](O[C@H]2CC[C@@]3(C)[C@H](CC[C@@H]4[C@@H]3CC[C@]3(C)[C@@H](c5ccnnc5)CC[C@]43O)C2)O[C@@H](C)[C@@H]1O [Compound R, 3beta-(alpha-L-tevetopyranosyloxy)-14-hydroxy-17beta-(4-pyridazil)-5beta,14beta-androstane] | 63
C[C@]12CC[C@H](O)C[C@H]1CC[C@@H]1[C@@H]2CC[C@]2(C)[C@@H](c3ccnnc3)CC[C@]12O [Genin 1, 3beta,14-dihydroxy-17beta-(4-pyridazil)-5beta,14beta-androstane] | 96
CO[C@H]1[C@H](O)[C@H](O[C@H]2CC[C@@]3(C)[C@H](CC[C@@H]4[C@@H]3CC[C@]3(C)[C@@H](C5=CC(=O)OC5)CC[C@]43O)C2)O[C@@H](C)[C@@H]1O [Nerifolin, nerifolin] | 90
